Reference: patent US11053239B2, “Compounds as BLC-2-selective apoptosis-inducing agents” (Fochon Pharmaceuticals, Ltd., priority 2017, dated 2021)
Read-outs that look alike come from different tables or passages of the source.

Columns and labels:
RS4; 11 cells = assay: Cell proliferation assay (MTS), RS4; 11 cells; type: cell-based; conditions: RS4, 11 (ATCC CRL-1873) cell proliferation, 30000 cells/well, 72 h, MTS, mechanism-based readout of Bcl-2 inhibition, read-out: RS4, 11 IC50
In short: (§1)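 RS4;11 (30000 cells/well, 72 h) and DOHH2 (5000 cells/well, 120 h) cells in RPMI-1640/10% FBS, treated at 37 °C with compound at 1.5–10000 nM final. Viability by MTS (2 h, SDS stop), absorbance 490 nm minus 650 nm reference; IC50 fitted.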

DOHH2 cells = assay: Cell proliferation assay (MTS), DOHH2 cells; type: cell-based; conditions: DOHH2 (DSMZ ACC 47) cell proliferation, 5000 cells/well, 120 h, MTS, mechanism-based readout of Bcl-2 inhibition, read-out: DOHH2 IC50
In short: as §1

Row | SMILES | IC50 (RS4; 11 cells; Homo sapiens, RS4-11, 72 h) [nM] | IC50 (RS4; 11 cells) [nM] | IC50 (DOHH2 cells; Homo sapiens, DOHH-2, 120 h) [nM] | IC50 (DOHH2 cells) [nM]
1 | CC1(C)CCC(CN2CCN(c3ccc(C(=O)NS(=O)(=O)c4ccc(NCC5CCC(N=S(C)(C)=O)CC5)c([N+](=O)[O-])c4)c(Oc4cnc5[nH]ccc5c4)c3)CC2)=C(c2ccc(Cl)cc2)C1 (single isomer, unassigned) [Example 50B, 2-((1H-pyrrolo[2,3-b]pyridin-5-yl)oxy)-4-(4-((4′-chloro-5,5-dimethyl-3,4,5,6-tetrahydro-[1,1′-biphenyl]-2-yl)methyl)piperazin-1-yl)-N-((4-(((4-((dimethyl(oxo)-λ^6-sulfanylidene)amino)cyclohexyl)methyl)amino)-3-nitrophenyl)sulfonyl) benzamide] | – | 4 | – | 13.4
2 | CN=S1(=O)CCN(C[C@H](C)Nc2ccc(S(=O)(=O)NC(=O)c3ccc(N4CCN(CC5=C(c6ccc(Cl)cc6)CC(C)(C)CC5)CC4)cc3Oc3cnc4[nH]ccc4c3)cc2[N+](=O)[O-])CC1 [Example 7, (S)-2-((1H-pyrrolo[2,3-b]pyridin-5-yl)oxy)-4-(4-((4′-chloro-5,5-dimethyl-3,4,5,6-tetrahydro-[1,1′-biphenyl]-2-yl)methyl)piperazin-1-yl)-N-((4-((1-(1-(methylimino)-1-oxido-1λ^6-thiomorpholino)propan-2-yl)amino)-3-nitrophenyl)sulfonyl)benzamide] | 55 | – | 111 | –
3 | CCS(=O)(CC)=NC1CCC(CNc2ccc(S(=O)(=O)NC(=O)c3ccc(N4CCN(CC5=C(c6ccc(Cl)cc6)CC(C)(C)CC5)CC4)cc3Oc3cnc4[nH]ccc4c3)cc2[N+](=O)[O-])CC1 (stereo not drawn) [Example 9A, 2-((1H-pyrrolo[2,3-b]pyridin-5-yl)oxy)-4-(4-((4′-chloro-5,5-dimethyl-3,4,5,6-tetrahydro-[1,1′-biphenyl]-2-yl)methyl)piperazin-1-yl)-N-((4-((((1r,4r)-4-((diethyl(oxo)-λ^6-sulfanylidene)amino)cyclohexyl)methyl)amino)-3-nitrophenyl)sulfonyl)benzamide] | 4 | – | 67 | –
4 | CCOC(=O)N=S1(=O)CCN(C[C@H](C)Nc2ccc(S(=O)(=O)NC(=O)c3ccc(N4CCN(CC5=C(c6ccc(Cl)cc6)CC(C)(C)CC5)CC4)cc3Oc3cnc4[nH]ccc4c3)cc2[N+](=O)[O-])CC1 [Example 72, ethyl (S)-(4-(2-((4-(N-(2-((1H-pyrrolo[2,3-b]pyridin-5-yl)oxy)-4-(4-((4′-chloro-5,5-dimethyl-3,4,5,6-tetrahydro-[1,1′-biphenyl]-2-yl)methyl)piperazin-1-yl)benzoyl)sulfamoyl)-2-nitrophenyl)amino)propyl)-1-oxido-1λ^6-thiomorpholin-1-ylidene) carbamate] | 68 | – | 119 | –
5 | COC(=O)N=S1(=O)CCC(CNc2ccc(S(=O)(=O)NC(=O)c3ccc(N4CCN(CC5=C(c6ccc(Cl)cc6)CC(C)(C)CC5)CC4)cc3Oc3cnc4[nH]ccc4c3)cc2[N+](=O)[O-])CC1 (stereo not drawn) [Example 61, methyl(4-(((4-(N-(2-((1H-pyrrolo[2,3-b]pyridin-5-yl)oxy)-4-(4-((4′-chloro-5,5-dimethyl-3,4,5,6-tetrahydro-[1,1′-biphenyl]-2-yl)methyl)piperazin-1-yl)benzoyl)sulfamoyl)-2-nitrophenyl)amino)methyl)-1-oxidotetrahydro-2H-1λ^6-thiopyran-1-ylidene) carbamate] | 56 | – | 161 | –

Second part, led by results:

Row | IC50 (RS4; 11 cells; Homo sapiens, RS4-11, 72 h) [nM] | IC50 (RS4; 11 cells) [nM] | SMILES | IC50 (DOHH2 cells; Homo sapiens, DOHH-2, 120 h) [nM] | IC50 (DOHH2 cells) [nM]
6 | 23 | – | CC(C)OC(=O)N=S1(=O)CCN(CC[C@H](C)Nc2ccc(S(=O)(=O)NC(=O)c3ccc(N4CCN(CC5=C(c6ccc(Cl)cc6)CC(C)(C)CC5)CC4)cc3Oc3cnc4[nH]ccc4c3)cc2[N+](=O)[O-])CC1 [Example 86, isopropyl (S)-(4-(3-((4-(N-(2-((1H-pyrrolo[2,3-b]pyridin-5-yl)oxy)-4-(4-((4′-chloro-5,5-dimethyl-3,4,5,6-tetrahydro-[1,1′-biphenyl]-2-yl)methyl)piperazin-1-yl)benzoyl)sulfamoyl)-2-nitrophenyl)amino)butyl)-1-oxido-1λ^6-thiomorpholin-1-ylidene) carbamate] | 35 | –
7 | 24 | – | CC(C)C(=O)N=S1(=O)CCN(CCNc2ccc(S(=O)(=O)NC(=O)c3ccc(N4CCN(CC5=C(c6ccc(Cl)cc6)CC(C)(C)CC5)CC4)cc3Oc3cnc4[nH]ccc4c3)cc2[N+](=O)[O-])CC1 [Example 68, 2-((1H-pyrrolo[2,3-b]pyridin-5-yl)oxy)-4-(4-((4′-chloro-5,5-dimethyl-3,4,5,6-tetrahydro-[1,1′-biphenyl]-2-yl)methyl)piperazin-1-yl)-N-((4-((2-(1-(isobutyrylimino)-1-oxido-1λ^6-thiomorpholino)ethyl)amino)-3-nitrophenyl)sulfonyl) benzamide] | 217 | –
8 | 14 | – | C[C@@H](CCN1CCS(=O)(=NC2CC2)CC1)Nc1ccc(S(=O)(=O)NC(=O)c2ccc(N3CCN(CC4=C(c5ccc(Cl)cc5)CC(C)(C)CC4)CC3)cc2Oc2cnc3[nH]ccc3c2)cc1[N+](=O)[O-] [Example 79, (S)-2-((1H-pyrrolo[2,3-b]pyridin-5-yl)oxy)-4-(4-((4′-chloro-5,5-dimethyl-3,4,5,6-tetrahydro-[1,1′-biphenyl]-2-yl)methyl)piperazin-1-yl)-N-((4-((4-(1-(cyclopropylimino)-1-oxido-1λ^6-thiomorpholino)butan-2-yl)amino)-3-nitrophenyl)sulfonyl)benzamide] | 11 | –
9 | 40 | – | C[C@@H](CN1CCS(=O)(=NC2CC2)CC1)Nc1ccc(S(=O)(=O)NC(=O)c2ccc(N3CCN(CC4=C(c5ccc(Cl)cc5)CC(C)(C)CC4)CC3)cc2Oc2cnc3[nH]ccc3c2)cc1[N+](=O)[O-] [Example 39, (S)-2-((1H-pyrrolo[2,3-b]pyridin-5-yl)oxy)-4-(4-((4′-chloro-5,5-dimethyl-3,4,5,6-tetrahydro-[1,1′-biphenyl]-2-yl)methyl)piperazin-1-yl)-N-((4-((1-(1-(cyclopropylimino)-1-oxido-1λ^6-thiomorpholino)propan-2-yl)amino)-3-nitrophenyl)sulfonyl)benzamide] | 163 | –
10 | 4 | – | CC1(C)CCC(CN2CCN(c3ccc(C(=O)NS(=O)(=O)c4ccc(NCC5CCC(N=S6(=O)CCOCC6)CC5)c([N+](=O)[O-])c4)c(Oc4cnc5[nH]ccc5c4)c3)CC2)=C(c2ccc(Cl)cc2)C1 (stereo not drawn) [Example 54, 2-((1H-pyrrolo[2,3-b]pyridin-5-yl)oxy)-4-(4-((4′-chloro-5,5-dimethyl-3,4,5,6-tetrahydro-[1,1′-biphenyl]-2-yl)methyl)piperazin-1-yl)-N-((3-nitro-4-(((4-((4-oxido-1,4λ^6-oxathian-4-ylidene)amino)cyclohexyl)methyl)amino)phenyl)sulfonyl) benzamide] | 9 | –
11 | 11 | – | COC(=O)N=S1(=O)CCN(CC[C@H](C)Nc2ccc(S(=O)(=O)NC(=O)c3ccc(N4CCN(CC5=C(c6ccc(Cl)cc6)CC(C)(C)CC5)CC4)cc3Oc3cnc4[nH]ccc4c3)cc2[N+](=O)[O-])CC1 [Example 84, methyl (S)-(4-(3-((4-(N-(2-((1H-pyrrolo[2,3-b]pyridin-5-yl)oxy)-4-(4-((4′-chloro-5,5-dimethyl-3,4,5,6-tetrahydro-[1,1′-biphenyl]-2-yl)methyl)piperazin-1-yl)benzoyl)sulfamoyl)-2-nitrophenyl)amino)butyl)-1-oxido-1λ^6-thiomorpholin-1-ylidene)carbamate] | 15 | –
12 | 47 | – | CC(=O)N=S1(=O)CCN(CC[C@H](C)Nc2ccc(S(=O)(=O)NC(=O)c3ccc(N4CCN(CC5=C(c6ccc(Cl)cc6)CC(C)(C)CC5)CC4)cc3Oc3cnc4[nH]ccc4c3)cc2[N+](=O)[O-])CC1 [Example 80] | 95 | –
